In brackets after ≈: the same amount, converted by molar mass. Several values for one entry are separate records, joined by “and”; a condition that tells them apart may be missing. Equal entries are not always repeated.
Key:
Experiment in all cases: Broth microdilution MIC, Example 7 (NCL812 and analogues)
MRSA = format: cell-based, Staphylococcus aureus; settings: 24 hours, 1st and 2nd replicate rows; for MIC (μg/ml) at 24 hours, MRSA 1: isolate MRSA 1; for MIC (μg/ml) at 24 hours, MRSA 2: isolate MRSA 2
Experimental: (§1) Minimum inhibitory concentrations (μg/ml) were determined using the broth microdilution method recommended by the Clinical and Laboratory Standards Institute (CLSI). MIC breakpoints were determined by visual assessment and then confirmed using an ELISA plate reader, measuring absorbance levels at 600 nm. Bacterial growth (turbidity) in the wells with antimicrobial was compared with the amount of growth (turbidity) in the growth-control well (containing no antimicrobial). All isolates were tested in duplicate, if there was a difference of greater than one two-fold dilution in the results, the test was repeated a third time. The purity of the isolates was closely monitored during testing by subculturing the prepared bacterial inoculum onto SBA (sheep blood agar). […] The MIC50, MIC20 and MIC range (minimum and maximum) were calculated for each of the bacterial groups.
(§2) MICs were determined against two MRSA strains, two VRE strains and one strain each of E. coli and Pseudomonas aeruginosa.

VRE = format: cell-based, Enterococcus spp.; settings: for MIC (μg/ml) at 24 hours, VRE 1: isolate VRE 1; for MIC (μg/ml) at 24 hours, VRE 1 / MIC (μg/ml) at 24 hours, VRE 2: 1st and 2nd replicate rows; for MIC (μg/ml) at 24 hours, VRE 2: isolate VRE 2
Experimental: as §1, §2

Escherichia coli = format: cell-based; settings: 24 hours; 1st and 2nd replicate rows
Pseudomonas aeruginosa = format: cell-based; settings: 24 hours; 1st and 2nd replicate rows

| MIC (μg/ml) at 24 hours, MRSA 1 (MRSA) [µg/mL] | MIC (μg/ml) at 24 hours, MRSA 2 (MRSA) [µg/mL] | MIC (μg/ml) at 24 hours, VRE 1 (VRE) | MIC (μg/ml) at 24 hours, VRE 2 (VRE) [µg/mL] | MIC (μg/ml) at 24 hours, E. coli (Escherichia coli) [µg/mL] | MIC (μg/ml) at 24 hours, P. aeruginosa (Pseudomonas aeruginosa) [µg/mL] | SMILES | activity against VRE among analogues (VRE; MIC testing, two VRE strains) |
| --- | --- | --- | --- | --- | --- | --- | --- |
| >128 | >128 | >128 µg/mL | >128 | >128 | >128 | N#Cc1ccccc1/C=N/NC(=O)N/N=C/c1ccccc1C#N [NCL008] | – |
| >128 | >128 | >128 µg/mL | >128 | >128 | >128 | N#Cc1cccc(/C=N/NC(=O)N/N=C/c2cccc(C#N)c2)c1 [NCL009] | – |
| >128 | >128 | >128 µg/mL | >128 | >128 | >128 | COc1cccc(/C=N/NC(=O)N/N=C/c2cccc(OC)c2)c1 [NCL010] | – |
| >128 | >128 | >128 µg/mL | 32 (≈ 79.5 µM) | >128 | >128 | O=C(NN=Cc1cccc(C(F)(F)F)c1)NN=Cc1cccc(C(F)(F)F)c1 [NCL011] | greatest activity |
| >128 | >128 | >128 µg/mL | >128 | >128 | >128 | O=C(NN=Cc1ccc(C(F)(F)F)cc1)NN=Cc1ccc(C(F)(F)F)cc1 [NCL012] | – |
| >128 | >128 | >128 µg/mL | >128 | >128 | >128 | O=C(N/N=C/c1ccccc1C(F)(F)F)N/N=C/c1ccccc1C(F)(F)F [NCL013] | – |
| >128 | >128 | >128 µg/mL | >128 | >128 | >128 | NC(=O)N/N=C/c1ccc(Cl)cc1 [NCL014] | – |
| >128 | >128 | >128 µg/mL | 128 | >128 | >128 | Cl.N=C(N)N/N=C/c1ccccc1Cl [NCL015] | – |
| >128 | >128 | >128 µg/mL | >128 | >128 | >128 | Cl.N=C(N)N/N=C/c1ccccc1F [NCL016] | – |
| >128 | >128 | >128 µg/mL | >128 | >128 | >128 | Cl.N=C(N)NN=Cc1cccc(F)c1 [NCL017] | – |
| >128 | >128 | >128 µg/mL | >128 | >128 | >128 | Cc1ccccc1/C=N/NC(=O)N/N=C/c1ccccc1C [NCL018] | – |
| >128 | >128 | >128 µg/mL | >128 | >128 | >128 | Cc1cccc(C=NNC(=O)NN=Cc2cccc(C)c2)c1 [NCL019] | – |
| >128 | >128 | >128 µg/mL | >128 | >128 | >128 | Cl.N=C(N/N=C/c1ccccc1Cl)N/N=C/c1ccccc1Cl [NCL020] | – |
| >128 | >128 | >128 µg/mL | >128 | >128 | >128 | Cl.N=C(NN=Cc1ccccc1F)NN=Cc1ccccc1F [NCL022] | – |
| >128 | >128 | >128 µg/mL | >128 | >128 | >128 | Cl.N#Cc1ccc(C=NNC(=N)NN=Cc2ccc(C#N)cc2)cc1 [NCL024] | – |
| >128 | >128 | >128 µg/mL | >128 | >128 | >128 | Cl.N#Cc1ccccc1C=NNC(=N)NN=Cc1ccccc1C#N [NCL025] | – |
| >128 | >128 | >128 µg/mL | >128 | >128 | >128 | Cl.N#Cc1cccc(C=NNC(=N)NN=Cc2cccc(C#N)c2)c1 [NCL026] | – |
| >128 | >128 | >128 µg/mL | >128 | >128 | >128 | COc1ccc(/C=N/NC(=N)N/N=C/c2ccc(OC)cc2)cc1.Cl [NCL027] | – |
| >128 | >128 | >128 µg/mL | 128 | >128 | >128 | COc1ccccc1C=NNC(=N)NN=Cc1ccccc1OC.Cl [NCL028] | – |
| >128 | >128 | >128 µg/mL | >128 | >128 | >128 | Cl.N#Cc1ccc(/C=N/NC(=N)N)cc1 [NCL031] | – |
| >128 | >128 | >128 µg/mL | >128 | >128 | >128 | Cl.N#Cc1ccccc1/C=N/NC(=N)N [NCL032] | – |
| >128 | >128 | >128 µg/mL | >128 | >128 | >128 | Cl.N#Cc1cccc(/C=N/NC(=N)N)c1 [NCL033] | – |
| >128 | >128 | >128 µg/mL | >128 | >128 | >128 | COc1ccccc1/C=N/NC(=N)N.Cl [NCL034] | – |
| >128 | >128 | >128 µg/mL | >128 | >128 | >128 | Cl.N=C(N/N=C/c1ccccc1C(F)(F)F)N/N=C/c1ccccc1C(F)(F)F [NCL036] | – |
| >128 | >128 | >126 µg/mL and >128 µg/mL | >128 | >128 | >128 | Cl.N=C(NN=Cc1cccc(C(F)(F)F)c1)NN=Cc1cccc(C(F)(F)F)c1 [NCL037] | – |
| >128 | >128 | >128 µg/mL | >128 | >128 | >128 | Cl.N=C(N)N/N=C/c1ccccc1C(F)(F)F [NCL042] | – |
| >128 | >128 | >128 µg/mL | >128 | >128 | >128 | Cc1ccccc1/C=N/NC(=N)N.Cl [NCL045] | – |

Reference: US10253002B2, “Compounds and methods of treating infections” (Neoculi Pty Ltd., priority 2013, dated 2019)
